Here are results for two compounds from publication PMC5838563, “Compounds producing an effective combinatorial regimen for disruption of HIV‐1 latency” (EMBO Molecular Medicine, 2017).

In assay [1] the test system is latent HIV‐1 provirus in CD4^+ T cells from aviremic HIV‐infected patients. In words: Intracellular HIV‐1 mRNA in CD4+ T cells of aviremic patients. The format is cell-based. How it is done: However, 1 nM PEP005 in combination with 1 μM PH02 produced a significant response that was double that produced by 1 μM PH02 on its own (Fig 10A). We confirmed this effect using a quantitative viral outgrowth assay (qVOA) with pools of CD4^+ T cells isolated from HIV‐1‐infected patient samples (Fig EV5, Appendix Table S5). […] We conclude that this combination of treatments may represent a promising candidate therapy to target persistent latent viral infection.
Figure 10 Effect of PH02 and PEP005 on expression of HIV provirus in latently infected cells from patients • Expression of intracellular HIV‐1 mRNA was determined from pools of CD4^+ T cells from aviremic HIV‐infected patients (n = 3, Appendix Table S4) following 24‐h treatment as indicated. Results are shown as fold induction relative to untreated controls. • Quantitative viral outgrowth assays (qVOA) were used to measure reactivation of HIV‐1 provirus from latency in pools of cells from patients. […] Data information: Statistical significance was determined by one‐way ANOVA and indicated as: *P < 0.05; **P < 0.005; ***P < 0.0005; ****P < 0.00005. […]
HIV‐1 RNA was measured from 1 × 10^6 resting CD4^+ T lymphocytes treated with 30 μM of each compound. […] RNA copy number was calculated using a standard curve generated from titrated infections with RGH‐PGK virus (Dahabieh et al, 2013). […]

For assay [2], the system named is latent HIV‐1 provirus in resting CD4^+ T cells from HIV‐1‐infected patients. In words: Supernatant HIV‐1 RNA from resting CD4+ T cells of patients (RT–qPCR). It is filed as cell-based. The note with it: 30 μM, 24 h. As for the experimental part:
For this analysis, we purified resting CD4^+ (rCD4^+) T lymphocytes from pools of patient samples by two‐step negative selection (Appendix Table S3). […] Purified rCD4^+ T cells were treated with 30 μM of each PH compound for 24 h, and RNA from the culture supernatants was analyzed by one‐step RT–qPCR, where results are presented as copy numbers of the virion/ml. […] Based on its capability for reactivating latent provirus at multiple chromosomal locations in cell lines, its negligible toxic effect, and that it produces the most robust reactivation of virus from patient samples, we focused our subsequent analysis on this compound (Table 1).
Figure 8 Effect of PH compounds on expression of HIV provirus in latently infected cells from patients Resting CD4^+ T cells purified from patient samples (n = 18, Appendix Table S3) were treated with 30 μM of each PH compound for 24 h, and HIV‐1 RNA was measured in culture supernatants. Results are presented as HIV virions/ml (mean ± SE). LOD indicates the limit of detection, 100 copies/ml culture supernatant. TEXT PRINTED IN THE PICTURE: PMA: Supernatant HIV-1 mRNA (Copies/ml): 308929.80 (50 nM) | PH01: Supernatant HIV-1 mRNA (Copies/ml): 5348.04 (Single Concentration (30μM)) | PH02: Supernatant HIV-1 mRNA (Copies/ml): 17624.53 (Single Concentration (30μM)) | PH03: Supernatant HIV-1 mRNA (Copies/ml): 4714.11 (Single Concentration (30μM)) | PH04: Supernatant HIV-1 mRNA (Copies/ml): 7134.68 (Single Concentration (30μM)) | PH05: Supernatant HIV-1 mRNA (Copies/ml): 587.19 (Single Concentration (30μM))
HIV‐1 RNA was measured from 1 × 10^6 resting CD4^+ T lymphocytes treated with 30 μM of each compound. Extracellular RNA was isolated using the ZR Viral RNA Kit (Zymo Research) and total cellular mRNA using the RNeasy MinElute cleanup kit (Qiagen). HIV‐1 RNA concentrations were assayed in one‐step RT–qPCRs using the iTaq™ universal SYBR Green one‐step kit (BIO‐RAD) with the HIV‐1 LTR‐specific primers, AGCCGCCTAGCATTTCATC and […]. RNA copy number was calculated using a standard curve generated from titrated infections with RGH‐PGK virus (Dahabieh et al, 2013). Reproducibility of RT–qPCR analysis was confirmed using a second set of primers within HIV‐1 p24 Gag, AGCAGCCATGCAAATGTTA, […]. HIV‐1 RNA determinations were normalized to GAPDH RNA measured using the primers […] and […].
For orientation: In qPCR the cycle at which signal appears reflects the starting amount.

Consider `C/C=C(/C)C(=O)O[C@H]1C(C)=C[C@]23C(=O)[C@@H](C=C(CO)[C@@H](O)[C@]12O)[C@H]1[C@@H](C[C@H]3C)C1(C)C` [PEP005, ingenol‐3‐angelate, reference compound], for which the “induction of viral RNA” value in assay [1] (1 nM PEP005 alone, 24 h) is recorded as “did not cause induction of viral RNA”.
For the compound `CC(=O)Oc1ccccc1N(C=C1Sc2ccccc2C1=O)C(C)=O` [PH02, 2‐{acetyl[(3‐oxo‐1‐benzothien‐2(3H)‐ylidene)methyl]amino}phenyl acetate], the “viral latency‐reversing activity compared to PMA” value in assay [2] is on record as “consistently produced the strongest effect”. Further, the “Supernatant HIV-1 mRNA” value in assay [2] (LOD 100 copies/ml) came out at 17624.53 Copies/ml. Also, the “response of combination relative to 1 μM PH02 on its own” value in assay [1] (1 μM PH02 + 1 nM PEP005, 24 h) is “double”.
